According to patent US20060111286A1, “Method of modulating endothelial cell activity” (priority 2002, published 2006):
Entries after “also recorded” stand apart in the source; their conditions may differ. Like-named read-outs stand apart in the source and are kept apart here.

Tests used:
protein kinase Cζ [1] = experiment: Immunofluorescence staining of protein kinase Cζ localisation in endothelial cell monolayers; type: cell-based, human; settings: for effect on thrombin stimulated protein kinase Cζ relocalisation to the membrane: then thrombin 0.2 U/ml
Description: (§1) Human umbilical vein endothelial cells were grown in M119 medium with 20% foetal calf serum (FCS) as described (Litwin, M., Clark, K., Noack, L., Furze, J., Berndt, M., Albelda, S., Vadas, M., Gamble, J. (1997) J Cell Biol. 139:219-28). Cells were used at passage 4 or less. For infection with adenoviral constructs, cells were grown to 80% confluence and exposed to 2.5×10^6 plaque forming units/25 cm^2 culture area for 2 hours in M119 medium with 2% FCS and a further 22 hours with 20% FCS.
(§2) 6×10^4 endothelial cells were cultured in fibronectin coated glass LabTek chamber slides (Nalge Nunc International, Naperville, Ill., USA) and incubated for 3 days prior to staining. Cells were then treated with angiopoietin-1, thrombin and/or bisindolylmaleimnide I, as required. Cells were washed once in PBS, fixed in 4% paraformnaldehyde/PBS for 5 minutes, permeabilized with acetone for 5 min at −20° C. and then washed twice with PBS. The fixed cells were incubated with rabbit anti-protein kinase Cζ immunoaffmity purified IgG or anti-protein kinase Cλ (BD Transduction Laboratories, San Diego, Calif., USA) overnight at 4° C. followed by FITC-conjugated anti-rabbit antibody (Rockland, Gilbertsville Pa., USA). Coverslips were mounted using fluorescent microscopy mounting medium (Dako Corp., Carpinteria, Calif., USA). Cells were imaged by epifluorescent microscopy on an Olympus BX-51 microscope (Olympus, Hamburg, Germany) equipped with excitation filters for fluorescein (494 nm) acquired to a Photometrics Cool Snap FX charge-coupled device camera (Roper Scientific GmbH, Germany). Images were adjusted for brightness and contrast using V^++ software (Digital Optics Ltd., Aucldand, New Zealand).

protein kinase Cζ [2] = experiment: Immunoblotting for phosphorylated Thr410 of over-expressed protein kinase Cζ in endothelial cells; type: cell-based, human; settings: for effect on thrombin stimulated protein kinase Cζ phosphorylation (Thr410): then thrombin 0.2 U/ml, FLAG-protein kinase Cζ over-expressing cells
Description: as §1
Endothelial cells were plated into fibronectin coated flasks before infection as above. Following infection, cells were serum depleted (0.2% FCS) overnight. Cells were then treated with angiopoietin-1, thrombin and/or bisindolylmaleimide I, as required, lysed in ice-cold lysis buffer (50 mM Tris.HCl, pH 7.4, with 1% NP-40, 150 mM NaCl, 2 mM EGTA, 1 mM NaPO4, 100 mM NaF, 10 mM sodium pyrophosphate and protease inhibitor cocktail). Protein concentrations were assayed using Bradford Reagent (BioRad, Hercules, Calif., USA). Equal amounts of protein were loaded onto 10% acrylamide gels, separated by SDS-PAGE, transferred to PVDF membrane, blocked with 5% skim milk powder and 0.1% Triton-X100 in phosphate buffered saline, and probed with a polyclonal rabbit antibody directed against phosphorylated Thr410 of the activation loop of protein kinase Cζ (Chou, M. M., Hou, W., Johnson, J., Graham, L. K., Lee, M. H., Chen, C. S., Newton, A. C., Schaffhausen, B. S., Toker, A. (1998) Curr Biol. 8:1069-77). This antibody was a generous gift from Dr Alex Toker. After washing, membranes were incubated with anti-rabbit secondary antibody and reactive bands were detected by chemiluminescence (ECL Western Blotting Detection Reagents, Amersham Pharmacia Biotech, Little Chalfont, England, UK). Membranes were stripped using stripping buffer (Re-Blot Plus Western Blot Recycling Kit, Chemicon, Temecula Calif., USA) and re-probed with rabbit anti-protein kinase Cζ immunoaffinity purified IgG (Upstate Biotechnology, Lake Placid N.Y., USA).

protein kinase Cλ = experiment: Immunofluorescence staining of protein kinase Cλ localisation in endothelial cell monolayers; type: cell-based, human; settings: thrombin 0.2 U/ml alone, confluent monolayers
Description: as §1
as §2, with “Cells were imaged by epifluorescent microscopy on an Olympus BX-51 microscope (Olympus, Hamburg, Germany) equipped with excitation filters for fluorescein (494 nm) acquired to a Photometrics Cool Snap FX charge-coupled device camera (Roper Scientific GmbH, Germany). Images were adjusted for brightness and contrast using V^++ software (Digital Optics Ltd., Aucldand, New Zealand).” left out

[3] = system: human umbilical vein endothelial cells; experiment: Endothelial permeability assay: passage of FITC-conjugated dextran through thrombin-treated endothelial cell monolayers in transwells; type: cell-based; settings: then thrombin 0.2 U/ml
Description: Cells were used at passage 4 or less. For infection with adenoviral constructs, cells were grown to 80% confluence and exposed to 2.5×10^6 plaque forming units/25 cm^2 culture area for 2 hours in M119 medium with 2% FCS and a further 22 hours with 20% FCS.
Endothelial cells (10^5) were cultured in transwells (3 μ-pore size, Corning Costar Corp, Cambridge, Mass., USA) for 24 hours in complete medium and then in 2% FCS medium for a further 24 hours. Cells were pre-treated with either bisindolylmaleimide I (10 nM or 6 μM), Calphostin C (100 nM), chelerythrine chloride (1 μM), H-89 (50 nM) or angiopoietin-1 (0.1 μg/ml), as required. FITC-conjugated dextran (0.2 μg) was added to the upper chamber of all wells and cells were then treated with thrombin (0.2 U/ml). […] Adenovirus infected ECs were plated on to transwells 24 hours after the above infection procedure and treated in the same manner as uninfected cells.

[4] = system: protein kinase C isoforms; settings: cited from earlier work

Question: Which results are given for Thrombin?
Answer: protein kinase Cζ localisation (protein kinase Cζ [1]; thrombin 0.2 U/ml alone, confluent monolayers): localized to the cell membrane; phosphorylation of over-expressed protein kinase Cζ (Thr410) (protein kinase Cζ [2]; thrombin 0.2 U/ml for 15 minutes alone): increased the phosphorylation of over-expressed protein kinase Cζ; protein kinase Cλ localisation (protein kinase Cλ): remained evenly distributed

Question: Which results are given for `CN(C)CCCn1cc(C2=C(c3c[nH]c4ccccc34)C(=O)NC2=O)c2ccccc21.Cl` [bisindolylmaleimide I, Bisindolylmaleimide I hydrochloride]?
Answer: effect on thrombin stimulated endothelial cell permeability increase ([3]; 100 nM, pre-treated 15 mins): had no effect on the thrombin-induced increases of endothelial cell permeability; effect on thrombin stimulated endothelial cell permeability increase ([3]; 6 μM, pre-treated 15 mins, hydrochloride): inhibited thrombin stimulation of endothelial cell permeability; effect on thrombin stimulated endothelial cell permeability increase ([3]; 6 μM, pre-treated 15 mins, listed as Bisindolylmaleimide I, hydrochloride): blocks thrombin-stimulated permeability increases; effect on thrombin stimulated protein kinase Cζ relocalisation to the membrane (protein kinase Cζ [1]; 6 μM for 15 minutes): dramatically decreased; effect on thrombin stimulated protein kinase Cζ phosphorylation (Thr410) (protein kinase Cζ [2]; 6 μM for 15 minutes): inhibited thrombin stimulated protein kinase Cζ phosphorylation; protein kinase C isoforms inhibited ([4]; 100 nM): inhibits classical and novel protein kinase C isoforms; protein kinase C isoforms inhibited ([4]; 6 μM): inhibits all protein cinase C isoforms

Question: For `O=S(=O)(NCCNC/C=C/c1ccc(Br)cc1)c1cccc2cnccc12` [H-89], which “effect on thrombin stimulated endothelial cell permeability increase” value ([3]; 50 nM, pre-treated 15 mins) is on record?
Answer: has no effect on thrombin induced permeability changes; also recorded: has no effect on thrombin-stimulated permeability increases

Question: With Calphostin C as the molecule, how does the “effect on thrombin stimulated endothelial cell permeability increase” value ([3]; 100 nM, pre-treated 15 mins) read?
Answer: had no effect on the thrombin-induced increases of endothelial cell permeability; also recorded: does not block thrombin-stimulated permeability increases

B1: Angiopoietin-1 (protein, UniProt Q15389 16-498, looked up)
Angiopoietin-1: HIGCSNQRRSPENSGRRYNRIQHGQCAYTFILPEHDGNCRESTTDQYNTNALQRDAPHVEPDFSSQKLQHLEHVMENYTQWLQKLENYIVENMKSEMAQIQQNAVQNHTATMLEIGTSLLSQTAEQTRKLTDVETQVLNQTSRLEIQLLENSLSTYKLEKQLLQQTNEILKIHEKNSLLEHKILEMEGKHKEELDTLKEEKENLQGLVTRQTYIIQELEKQLNRATTNNSVLQKQQLELMDTVHNLVNLCTKEGVLLKGGKREEEKPFRDCADVYQAGFNKSGIYTIYINNMPEPKKVFCNMDVNGGGWTVIQHREDGSLDFQRGWKEYKMGFGNPSGEYWLGNEFIFAITSQRQYMLRIELMDWEGNRAYSQYDRFHIGNEKQNYRLYLKGHTGTAGKQSSLILHGADFSTKDADNDNCMCKCALMLTGGWWFDACGPSNLNGMFYTAGQNHGKLNGIKWHYFKGPSYSLRSTTMMIRPLDF
notes: Angiopoietin-1, obtained from Regeneron Inc
Question: What does the source list for B1?
Answer: effect on thrombin stimulated endothelial cell permeability increase ([3]; 0.1 μg/ml, pre-treated 30 min): inhibiting thrombin stimulated endothelial cell permeability increases; effect on thrombin stimulated endothelial cell permeability increase ([3]; 0.1 μg/ml, pre-treated 30 min, listed as Angiopoietin-1): can inhibit the thrombin-induced increase of endothelial cell permeability; effect on thrombin stimulated protein kinase Cζ relocalisation to the membrane (protein kinase Cζ [1]; 0.1 μg/ml for 30 minutes): dramatically decreased; also recorded: blocking thrombin stimulated protein kinase Cζ relocalisation; effect on thrombin stimulated protein kinase Cζ phosphorylation (Thr410) (protein kinase Cζ [2]; 0.1 μg/ml for 30 minutes): inhibited thrombin stimulated protein kinase Cζ phosphorylation; also recorded: blocking thrombin stimulated protein kinase Cζ phoshorylation
